target: T1, K-Ras G12C (Homo sapiens, UniProt P01116, G12C); assay: CAF assay (% CAF; method in Example 7, not in this part); format: binding; settings: 10 uM compound, 1 h incubation
T1 construct: This protein contained 188 amino acids in total, including an N-terminal 6-Histidine tag; made in house; host or cells: E. coli BL21

| Compound | % CAF @ 10 uM, 1h [%] |
| --- | --- |
| C=CC(=O)N1C[C@H](C)N(c2nc(=O)n3c4c(c(-c5ccc(F)cc5)c(Cl)cc24)SC[C@@H]3COCCOC)C[C@H]1C [Example 558, (S)-7-((2S,5R)-4-acryloyl-2,5-dimethylpiperazin-1-yl)-9-chloro-10-(4-fluorophenyl)-3-((2-methoxyethoxy)methyl)-2H-[1,4]thiazino[2,3,4-ij]quinazolin-5(3H)-one] | 64.3 |
| C=CC(=O)N1C[C@H](C)N(c2nc(=O)n3c4c(c(-c5ccc(F)cc5F)c(Cl)cc24)SC[C@@H]3CN2CCN(C3CC3)CC2)C[C@H]1C [Example 551, (3S)-7-((2S,5R)-4-acryloyl-2,5-dimethylpiperazin-1-yl)-9-chloro-3-((4-cyclopropylpiperazin-1-yl)methyl)-10-(2,4-difluorophenyl)-2H-[1,4]thiazino[2,3,4-ij]quinazolin-5(3H)-one] | 53.4 |
| C=CC(=O)N1CCN(c2nc(=O)n3c4c(c(-c5ccc(F)cc5F)c(Cl)cc24)SC[C@@H](OC)C3)CC1 [Example 504, (3S)-8-(4-acryloylpiperazin-1-yl)-10-chloro-11-(2,4-difluorophenyl)-3-methoxy-3,4-dihydro-2H,6H-[1,4]thiazepino[2,3,4-ij]quinazolin-6-one] | 96 |
| C=CC(=O)N1[C@H](C)CN(c2nc(=O)n3c4c(c(-c5ccc(F)cc5)c(C(F)(F)F)cc24)SC[C@H](OC)C3)C[C@@H]1C [Example 584, (R)-8-((3S,5R)-4-acryloyl-3,5-dimethylpiperazin-1-yl)-11-(4-fluorophenyl)-3-methoxy-10-(trifluoromethyl)-3,4-dihydro-2H,6H-[1,4]thiazepino[2,3,4-ij]quinazolin-6-one] | 97 |
| C=CC(=O)N1[C@H](C)CN(c2nc(=O)n3c4c(c(-c5cc(Cl)c(F)cc5F)c(C(F)(F)F)cc24)SC[C@@H]3COC)C[C@@H]1C [Example 559, (3S)-7-((3S,5R)-4-acryloyl-3,5-dimethylpiperazin-1-yl)-10-(5-chloro-2,4-difluorophenyl)-3-(methoxymethyl)-9-(trifluoromethyl)-2H-[1,4]thiazino[2,3,4-ij]quinazolin-5(3H)-one] | 83.8 |
| C=CC(=O)N1CCN(c2nc(=O)n3c4c(c(-c5cc(Cl)c(F)cc5F)c(C(F)(F)F)cc24)SC[C@@H]3COCOC)[C@@H](C)C1 (atropisomer, axis not shown) [Example 553, (3S,10S)-7-((S)-4-acryloyl-2-methylpiperazin-1-yl)-10-(5-chloro-2,4-difluorophenyl)-3-((methoxymethoxy)methyl)-9-(trifluoromethyl)-2H-[1,4]thiazino[2,3,4-ij]quinazolin-5(3H)-one] | 37 |
| C=CC(=O)N1CCN(c2nc(=O)n3c4c(c(-c5ccc(F)cc5F)c(Cl)cc24)SC[C@H](OC)C3)CC1 [Example 525, (3R)-8-(4-acryloylpiperazin-1-yl)-10-chloro-11-(2,4-difluorophenyl)-3-methoxy-3,4-dihydro-2H,6H-[1,4]thiazepino[2,3,4-ij]quinazolin-6-one] | 86 |
| C=CC(=O)N1CCN(c2nc(=O)n3c4c(c(-c5ccc(F)cc5F)c(C(F)(F)F)cc24)SC[C@@H]3COC)CC1 [Example 514, (3S)-7-(4-acryloylpiperazin-1-yl)-10-(2,4-difluorophenyl)-3-(methoxymethyl)-9-(trifluoromethyl)-2H-[1,4]thiazino[2,3,4-ij]quinazolin-5(3H)-one] | 96.1 |
| C=CC(=O)N1C[C@H](C)N(c2nc(=O)n3c4c(c(-c5cc(Cl)c(F)cc5F)c(C(F)(F)F)cc24)SC[C@@H]3COC)C[C@H]1C (atropisomer, axis not shown) [Example 544, (3S,10S)-7-((2S,5R)-4-acryloyl-2,5-dimethylpiperazin-1-yl)-10-(5-chloro-2,4-difluorophenyl)-3-(methoxymethyl)-9-(trifluoromethyl)-2,3-dihydro-5H-[1,4]thiazino[2,3,4-ij]quinazolin-5-one] | 48.8 |
| C=CC(=O)N1C[C@H](C)N(c2nc(=O)n3c4c(c(-c5ccc(F)cc5F)c(C(F)(F)F)cc24)SC[C@@H]3COC)C[C@H]1C (atropisomer, axis not shown) [Example 508, (3S,10S)-7-((2S,5R)-4-acryloyl-2,5-dimethylpiperazin-1-yl)-10-(2,4-difluorophenyl)-3-(methoxymethyl)-9-(trifluoromethyl)-2,3-dihydro-5H-[1,4]thiazino[2,3,4-ij]quinazolin-5-one] | 92 |
| C=CC(=O)N1[C@H](C)CN(c2nc(=O)n3c4c(c(-c5cc(Cl)c(F)cc5F)c(C(F)(F)F)cc24)SC[C@@H]3COCOC)C[C@@H]1C [Example 567, (3S)-7-((3S,5R)-4-acryloyl-3,5-dimethylpiperazin-1-yl)-10-(5-chloro-2,4-difluorophenyl)-3-((methoxymethoxy)methyl)-9-(trifluoromethyl)-2H-[1,4]thiazino[2,3,4-ij]quinazolin-5(3H)-one] | 64.4 |
| C=CC(=O)N1C[C@H](C)N(c2nc(=O)n3c4c(c(-c5cc(F)c(F)cc5F)c(Cl)cc24)SC[C@@H]3CN2CCn3c(nnc3C(F)(F)F)C2)C[C@H]1C [Example 459, (3S)-7-((2S,5R)-4-acryloyl-2,5-dimethylpiperazin-1-yl)-9-chloro-3-((3-(trifluoromethyl)-5,6-dihydro-[1,2,4]triazolo[4,3-a]pyrazin-7(8H)-yl)methyl)-10-(2,4,5-trifluorophenyl)-2H-[1,4]thiazino[2,3,4-ij]quinazolin-5(3H)-one] | 82.2 |
| C=CC(=O)N1[C@H](C)CN(c2nc(=O)n3c4c(c(-c5ccc(F)cc5F)c(C(F)(F)F)cc24)SCC2(COC2)C3)C[C@@H]1C [Example 531, 8′-((3S,5R)-4-Acryloyl-3,5-dimethylpiperazin-1-yl)-11′-(2,4-difluorophenyl)-10′-(trifluoromethyl)-2′H,4′H,6′H-spiro[oxetane-3,3′-[1,4]thiazepino[2,3,4-ij]quinazolin]-6′-one] | 88.6 |
| C=CC(=O)N1[C@H](C)CN(c2nc(=O)n3c4c(c(-c5cc(Cl)c(F)cc5F)c(C(F)(F)F)cc24)SC[C@@H]3CN(C)C)C[C@@H]1C [Example 587, (3S)-7-((3S,5R)-4-acryloyl-3,5-dimethylpiperazin-1-yl)-10-(5-chloro-2,4-difluorophenyl)-3-((dimethylamino)methyl)-9-(trifluoromethyl)-2H-[1,4]thiazino[2,3,4-ij]quinazolin-5(3H)-one] | 58.9 |
| C=CC(=O)N1C[C@H](C)N(c2nc(=O)n3c4c(c(-c5ccc(F)cc5F)c(Cl)cc24)SC[C@@H]3CN2CCn3c(nnc3C(F)(F)F)C2)C[C@H]1C [Example 468, (3S)-7-((2S,5R)-4-acryloyl-2,5-dimethylpiperazin-1-yl)-9-chloro-10-(2,4-difluorophenyl)-3-((3-(trifluoromethyl)-5,6-dihydro-[1,2,4]triazolo[4,3-a]pyrazin-7(8H)-yl)methyl)-2H-[1,4]thiazino[2,3,4-ij]quinazolin-5(3H)-one] | 68.6 |

same assay, conditions: 10 uM, 1 h; Table 3

| Compound | % CAF @ 10 uM, 1h [%] |
| --- | --- |
| C=CC(=O)N1CCN(c2nc(=O)n3c4c(c(-c5ccc(F)cc5F)c(C)cc24)SCC3)[C@@H](C)C1 [Example 115, 7-((S)-4-acryloyl-2-methylpiperazin-1-yl)-10-(2,4-difluorophenyl)-9-methyl-2,3-dihydro-5H-[1,4]thiazino[2,3,4-ij]quinazolin-5-one] | 94.1 |
| C=CC(=O)N1CCN(c2nc(=O)n3c4c(c(-n5ccccc5=O)c(Cl)cc24)SCC3)[C@@H](C)C1 [Example 136, 7-((S)-4-acryloyl-2-methylpiperazin-1-yl)-9-chloro-10-(2-oxopyridin-1(2H)-yl)-2,3-dihydro-5H-[1,4]thiazino[2,3,4-ij]quinazolin-5-one] | 89.4 |
| C=CC(=O)N1CCN(c2nc(=O)n3c4c(c(-c5ccc(F)cc5F)c(Cl)cc24)SCC3)C[C@@H]1CC#N [Example 88, 2-((2S)-1-acryloyl-4-(9-chloro-10-(2,4-difluorophenyl)-5-oxo-2,3-dihydro-5H-[1,4]thiazino[2,3,4-ij]quinazolin-7-yl)piperazin-2-yl)acetonitrile] | 90.2 |
| C=CC(=O)N1CCN(c2nc(=O)n3c4c(c(-c5cc(O)ccc5F)c(Cl)cc24)SCC3)[C@@H](C)C1 [Example 152, 7-((S)-4-acryloyl-2-methylpiperazin-1-yl)-9-chloro-10-(2-fluoro-5-hydroxyphenyl)-2,3-dihydro-5H-[1,4]thiazino[2,3,4-ij]quinazolin-5-one] | 55.3 |
| C=CC(=O)N1CCN(c2nc(=O)n3c4c(c(-c5ccc(F)cc5F)c(Cl)cc24)SC[C@H]3C)[C@@H](C)C1 [Example 99, (3R)-7-((S)-4-acryloyl-2-methylpiperazin-1-yl)-9-chloro-10-(2,4-difluorophenyl)-3-methyl-2H-[1,4]thiazino[2,3,4-ij]quinazolin-5(3H)-one] | 87.2 |
| N#CC[C@H]1CN(c2nc(=O)n3c4c(c(-c5ccc(F)cc5F)c(Cl)cc24)SCC3)CCN1C(=O)/C=C/C(F)(F)F [Example 81, 2-((2S)-4-(9-chloro-10-(2,4-difluorophenyl)-5-oxo-2,3-dihydro-5H-[1,4]thiazino[2,3,4-ij]quinazolin-7-yl)-1-((E)-4,4,4-trifluorobut-2-enoyl)piperazin-2-yl)acetonitrile] | 89 |
| C=CC(=O)N1CCN(c2nc(=O)n3c4c(c(-c5c(F)cc(F)cc5F)c(Cl)cc24)SCC3)[C@@H](C)C1 [Example 146, (S)-7-(4-acryloyl-2-methylpiperazin-1-yl)-9-chloro-10-(2,4,6-trifluorophenyl)-2,3-dihydro-5H-[1,4]thiazino[2,3,4-ij]quinazolin-5-one] | 90.7 |

same assay, conditions: 10 μM, 1 h; Table 4

| Compound | % CAF @ 10 μM, 1 h [%] |
| --- | --- |
| C=CC(=O)N1CCN(c2nc(=O)n3c4c(c(-c5ccc(F)cc5F)c(Cl)cc24)SC[C@H]3C)[C@@H](C)C1 [Example 99, (3R)-7-((S)-4-acryloyl-2-methylpiperazin-1-yl)-9-chloro-10-(2,4-difluorophenyl)-3-methyl-2H-[1,4]thiazino[2,3,4-ij]quinazolin-5(3H)-one] | 87.2 |

— patent publication US20230107642A1 (Erasca, Inc., priority 2020, published 2023)
